Like-named read-outs stand apart in the source and are kept apart here.

Experimental findings from patent US9980943B2, “Methods of treating muscular dystrophy” (BOARD OF REGENTS OF THE NEVADA SYSTEM OF HIGHER EDUCATION, …, priority 2013, dated 2018) are described below.

In this assay the test system is α7 integrin (LacZ reporter in α7LacZ+/− myoblasts). Kind of assay: qHTS of the LOPAC library and MLSMR (online screen, α7LacZ+/− myoblasts). To be noted: for activation at 0.307 µM / activation at 1.53 µM / activation at 7.66 µM / activation at 38.3 µM / Emax / EC50: Mus musculus, Myoblast; for activation at 0.307 µM: read-out: Activity at 0.307 uM [%] **; for activation at 1.53 µM: read-out: Activity at 1.530 uM [%] **; for activation at 7.66 µM: read-out: Activity at 7.660 uM [%] **; for activation at 38.3 µM: read-out: Activity at 38.30uM [%] **; for EC50: read-out: Fit LogAC50 (converted).

The mark [1] stands for this setting: 48 h, read-out: Fit Infinite Activity [%].

Description: A total of 250 α7LacZ^+/− myoblasts at passage 13 were dispensed using a multidrop (Thermo) into black low base tissue culture treated microclear aurora plates in 6 μl media containing DMEM without phenol, 5% FBS, 1× GluMax and 1× Penicillin/Streptomycin. […] Compounds were then dispensed using a Kalypsys pintool to deliver 23 nl/well compounds in DMSO (diluted into 6 μl resulting in a 1:260 dilution of compound). […] After incubation with compound, 5 μl of the media was aspirated using the Kalypsys washer/dispenser and 3 μl of the Mammalian Protein Extraction Reagent (MPER) lysis buffer (Thermo Fisher) was added. […] The plates were then incubated for 10 minutes at room temperature.
The assay was adapted for a high-throughput screen with the fully automated Kalypsys robotic system using 1536 well plates at NCGC.

`COc1ccc(-c2c[nH]nc2-c2ccc(OC)cc2)cc1` [Compound 106]: where the note is “48 h”, the activation at 0.307 µM was -0.495%, the activation at 1.53 µM was found to be 9.02%, the activation at 7.66 µM came to 40.4% and the activation at 38.3 µM was determined as 70.1%. Under setting [1], the Emax worked out at 79.2%. In addition, the Emax (read-out: Max Response [%]) was found to be 70.1%.

Regarding `Cc1cc(C)nc(NC(=O)c2ccc(Cl)cc2Cl)n1` [Compound 198], the EC50 is 10 µM. Where the note is “48 h”, the activation at 0.307 µM worked out at 2.39%, the activation at 1.53 µM stood at 0%, the activation at 7.66 µM is 17.6% and the activation at 38.3 µM is 79.1%. In addition, the Emax under setting [1] is 79.2%. The Emax (read-out: Max Response [%]) amounted to 79.1%.

Take `COc1ccc(CNC(=O)COC(=O)CCc2c[nH]c3ccccc23)cc1` [Compound 184]: the EC50 was 10 µM. In addition, for the setting “48 h”, the activation at 0.307 µM was determined as 0%, the activation at 1.53 µM was -0.551%, the activation at 7.66 µM was determined as 26% and the activation at 38.3 µM was found to be 83.9%. Also, under setting [1], the Emax was found to be 85.5%. The Emax (read-out: Max Response [%]) is 83.9%.

Consider `CC(C)c1ccc(NC(=O)CN2C(=O)c3ccccc3S2(=O)=O)cc1` [Compound 150], for which the EC50 was 10 µM. Besides, for the setting “48 h”, the activation at 0.307 µM was 0%, the activation at 1.53 µM came out at 0.16%, the activation at 7.66 µM amounted to 15.1% and the activation at 38.3 µM was 67.1%. The Emax under setting [1] was 67.4%. Besides, under “read-out: Max Response [%]”, the Emax amounted to 67.1%.

`Sc1nnc(Cn2cnc3ccccc32)n1-c1ccccc1` [Compound 189]: where the note is “48 h”, the activation at 0.307 µM turned out to be 13.1%, the activation at 1.53 µM came out at 23.7%, the activation at 7.66 µM amounted to 44% and the activation at 38.3 µM was found to be 66.7%. For the same molecule, the Emax under setting [1] amounted to 84.6%. Further, the Emax (read-out: Max Response [%]) came out at 66.7%.

Regarding `O=[N+]([O-])c1ccc(N2CCN(c3ccccc3F)CC2)nc1` [Compound 49], the EC50 was 5.62 µM. For the same molecule, where the note is “48 h”, the activation at 0.307 µM worked out at 2.3%, the activation at 1.53 µM came to 15.5%, the activation at 7.66 µM is 102% and the activation at 38.3 µM amounted to 151%. Further, under setting [1], the Emax amounted to 154%.

For the molecule `Nc1nccc(-c2ccc(-n3cnc4ccccc43)cc2)n1` [Compound 192], for the setting “48 h”, the activation at 0.307 µM was found to be 0.89%, the activation at 1.53 µM came out at 2.96%, the activation at 7.66 µM worked out at 15.9% and the activation at 38.3 µM worked out at 76.1%. The Emax under setting [1] turned out to be 76.5%. For the same molecule, for the setting “read-out: Max Response [%]”, the Emax was 76.1%.

For the molecule `COc1cccc(C(=O)NCC(=O)N2CCC3(CC2)NCCc2[nH]cnc23)c1` [Compound 93], the EC50 is 11.2 µM. Further, where the note is “48 h”, the activation at 0.307 µM is -3.47%, the activation at 1.53 µM stood at 0%, the activation at 7.66 µM is 36.3% and the activation at 38.3 µM came to 102%. The Emax under setting [1] came to 114%. Further, where the note is “read-out: Max Response [%]”, the Emax turned out to be 102%.

In the case of `O=C(Nc1ccc(Oc2cccnc2)cc1)c1ccccc1Cl` [Compound 215], the EC50 is 10 µM. For the same molecule, for the setting “48 h”, the activation at 0.307 µM worked out at 14.2%, the activation at 1.53 µM came out at 15.2%, the activation at 7.66 µM came out at 40.8% and the activation at 38.3 µM was 83.3%. Moreover, the Emax under setting [1] turned out to be 87.4%. For the same molecule, the Emax (read-out: Max Response [%]) stood at 83.3%.

Take `CC(C)(C)N/C=C(\C#N)S(=O)(=O)c1ccc(Br)cc1` [Compound 173]: under “48 h”, the activation at 0.307 µM turned out to be 10.4%, the activation at 1.53 µM came out at 21.1%, the activation at 7.66 µM came out at 42.1% and the activation at 38.3 µM was 72.3%. Besides, the Emax under setting [1] worked out at 93%. Also, the Emax (read-out: Max Response [%]) was 72.3%.

For the molecule `CC1(C)CC(O)=C/C(=N\c2ccc(C(=O)O)c(O)c2)C1` [Compound 99], the EC50 was 10 µM. Also, for the setting “48 h”, the activation at 0.307 µM was found to be 0.744%, the activation at 1.53 µM worked out at 1.73%, the activation at 7.66 µM stood at 44.4% and the activation at 38.3 µM turned out to be 114%. For the same molecule, the Emax under setting [1] came out at 121%. Where the note is “read-out: Max Response [%]”, the Emax was found to be 114%.

As for `CSc1ncccc1C(=O)OCC(=O)c1cc(C)n(C)c1C` [Compound 134], the EC50 was 10 µM. Where the note is “48 h”, the activation at 0.307 µM was -21%, the activation at 1.53 µM was -23.9%, the activation at 7.66 µM was -0.0686% and the activation at 38.3 µM is 72.9%. Also, the Emax under setting [1] was found to be 72.9%. Further, for the setting “read-out: Max Response [%]”, the Emax was determined as 72.9%.

Turning to `C=CCN(CC=C)C(=O)c1ccc(OC2CCN(S(=O)(=O)N(C)C)CC2)cc1` [Compound 64], the EC50 was 5.01 µM. Moreover, for the setting “48 h”, the activation at 0.307 µM was -6.4%, the activation at 1.53 µM was 3.46%, the activation at 7.66 µM is 95.1% and the activation at 38.3 µM came to 129%. Besides, the Emax under setting [1] was determined as 130%. The Emax (read-out: Max Response [%]) came out at 129%.

Turning to `CCOc1ccc(S(=O)(=O)NCCC(=O)NCC(c2cccs2)N2CCOCC2)cc1` (centres unmarked) [Compound 14], the EC50 is 2.24 µM. For the setting “48 h”, the activation at 0.307 µM was -21.6%, the activation at 1.53 µM worked out at 3.54%, the activation at 7.66 µM was determined as 59.1% and the activation at 38.3 µM is 61.7%. Further, the Emax under setting [1] was found to be 62.8%.

Take `COC(=O)c1ccc(C2C(C(=O)c3cc4ccccc4o3)=C(O)C(=O)N2CCN2CCOCC2)cc1` (centres unmarked) [Compound 141]: the EC50 is 10 µM. Moreover, where the note is “48 h”, the activation at 0.307 µM was -17.2%, the activation at 1.53 µM is -18.3%, the activation at 7.66 µM was determined as 2.6% and the activation at 38.3 µM came to 82.7%. The Emax under setting [1] was determined as 82.8%. For the same molecule, the Emax (read-out: Max Response [%]) turned out to be 82.7%.

Consider `O=[N+]([O-])c1cccc(S(=O)(=O)N2CCN(S(=O)(=O)N3CCOCC3)CC2)c1` [Compound 158], for which the EC50 was 10 µM. In addition, where the note is “48 h”, the activation at 0.307 µM stood at 0.67%, the activation at 1.53 µM turned out to be 0.634%, the activation at 7.66 µM turned out to be 26.3% and the activation at 38.3 µM was found to be 65.9%. In addition, the Emax under setting [1] was found to be 70.7%. Where the note is “read-out: Max Response [%]”, the Emax was determined as 65.9%.

With `COc1ccc(/C=C(\NC(=O)c2ccc(C)cc2)C(=O)Nc2ccc(C(=O)O)cc2)cc1` [Compound 160], where the note is “48 h”, the activation at 0.307 µM was -2.5%, the activation at 1.53 µM was -3.36%, the activation at 7.66 µM was 16% and the activation at 38.3 µM is 99.8%. The Emax under setting [1] came out at 101%. For the same molecule, the Emax (read-out: Max Response [%]) is 99.8%.

For `C=CCc1c(C)nc(-c2ccccc2)nc1N/N=C/c1ccccc1` [Compound 213], under “48 h”, the activation at 0.307 µM amounted to 0%, the activation at 1.53 µM came to 6.49%, the activation at 7.66 µM amounted to 41.1% and the activation at 38.3 µM is 90.1%. Also, under setting [1], the Emax was determined as 109%. Also, the Emax (read-out: Max Response [%]) is 90.1%.

For `COc1cc(/C=C/CN2CCN(Cc3ccc(C)o3)C(CCO)C2)ccc1O` (centres unmarked) [Compound 42], the EC50 is 14.1 µM. For the same molecule, for the setting “48 h”, the activation at 0.307 µM amounted to 20.1%, the activation at 1.53 µM came to 0%, the activation at 7.66 µM worked out at 32.1% and the activation at 38.3 µM was 481%. Under setting [1], the Emax worked out at 485%.

As for `COc1ccccc1C(=O)NCCOc1ccc(C(C)(C)C)cc1` [Compound 168], where the note is “48 h”, the activation at 1.53 µM turned out to be 0%, the activation at 7.66 µM was found to be 35.8% and the activation at 38.3 µM was 77.8%. In addition, the Emax under setting [1] amounted to 82.9%. Besides, the Emax (read-out: Max Response [%]) came to 77.8%.

As for `CC(OC(=O)c1cc(-c2cccnc2)nc2ccccc12)C(=O)Nc1ccc2ccccc2c1` (centres unmarked) [Compound 1], the EC50 is 1.12 µM. Further, under “48 h”, the activation at 0.307 µM stood at 0%, the activation at 1.53 µM was determined as 143%, the activation at 7.66 µM amounted to 198% and the activation at 38.3 µM came to 191%. Besides, under setting [1], the Emax came out at 195%.

With `COc1cc(C(C(=O)NC2CCCCC2)N(C(=O)c2snc(C(N)=O)c2N)c2ccc(C)cc2)ccc1O` (centres unmarked) [Compound 71], the EC50 is 7.94 µM. Where the note is “48 h”, the activation at 0.307 µM was 0%, the activation at 1.53 µM stood at 9.63%, the activation at 7.66 µM was 58.8% and the activation at 38.3 µM worked out at 109%. Moreover, the Emax under setting [1] is 122%. The Emax (read-out: Max Response [%]) amounted to 109%.

For `COc1ccc(-n2c(C)c(C(C)=O)c3cc(OC(C)=O)ccc32)cc1` [Compound 59], the EC50 was 10 µM. Under “48 h”, the activation at 0.307 µM was found to be 0%, the activation at 1.53 µM is -6.19%, the activation at 7.66 µM stood at 48.5% and the activation at 38.3 µM turned out to be 184%. Further, the Emax under setting [1] came out at 185%. Moreover, where the note is “read-out: Max Response [%]”, the Emax worked out at 184%.

Turning to `CCOC(=O)C1=C(NC(=O)c2ccc(OC)c(S(=O)(=O)N3CCCCC3C)c2)Nc2ccccc2N=C1CC` (centres unmarked) [Compound 45], the Score was 47 and the EC50 was 14.1 µM. Where the note is “48 h”, the activation at 0.307 µM is -16.6%, the activation at 1.53 µM turned out to be 0.0514%, the activation at 7.66 µM is 18.6% and the activation at 38.3 µM was 414%. Moreover, the Emax under setting [1] was determined as 420%. For the same molecule, the Emax (read-out: Max Response [%]) came to 414%.

For the molecule `CNc1nnc(SCC(=O)c2cc(C)n(C3CC3)c2C)s1` [Compound 68], the EC50 is 12.6 µM. For the setting “48 h”, the activation at 0.307 µM is -11.8%, the activation at 1.53 µM was -22%, the activation at 7.66 µM stood at 4.46% and the activation at 38.3 µM amounted to 220%. Besides, the Emax under setting [1] turned out to be 222%. Besides, the Emax (read-out: Max Response [%]) was 220%.

Take `COc1cc(NC(=O)C2C3C=CC(C3)C2C(=O)O)ccc1NC(=O)c1ccccc1` (centres unmarked) [Compound 142]: where the note is “48 h”, the activation at 0.307 µM was -17.1%, the activation at 1.53 µM was -18.7%, the activation at 7.66 µM stood at 16.8% and the activation at 38.3 µM came to 68.9%. Under setting [1], the Emax turned out to be 71.2%. In addition, the Emax (read-out: Max Response [%]) came out at 68.9%.
